“Also recorded” adds a separate entry of the source. Ends that are not written are not given here.
Tests used:
WT-GBM = assay: In vivo play-off phage auditioning, WT-GBM tumor; set-up: species or system murine WT-GBM glioblastoma in athymic nude mice; conditions: phage-displayed peptide; equimolar mix, i.v. 1 × 10^10 pfu/mouse, 2 h circulation, perfusion; Ion-Torrent sequencing; mean, N = 3 mice
Procedure: (§1) Athymic nude mice (Hsd/Athymic Fox1 nu Harlan) were purchased from Envigo (Netherlands) and maintained under standard housing conditions of the Animal Facility of the Institute of Biomedicine and Translational Medicine, University of Tartu (Tartu, Estonia). For orthotropic GBM tumor models, we used NCH421K, P13, and P3 stem cell-like, WT-GBM cells. The individual GBM cells around 2–3 × 10^5 in 3 μL PBS were intracranially implanted into mice brain 2 mm right and 1 mm anterior to the bregma. U87-MG and PC3 subcutaneous models were induced by injecting 2–9 × 10^6 cells in 100 µl PBS subcutaneously into the right flank of 11–15 week old male and female nude mice. All animal experiments were performed in accordance with the procedures approved by the Committee of Animal Experimentation of Estonian Ministry of Agriculture, permits #42 and #48.
(§2) In vivo play-off was used for internally controlled and competitive systemic phage homing studies in mice bearing tumor xenografts. Phages displaying the candidate TNC-C binding peptides and control peptides were individually amplified and purified by precipitation with PEG-8000 (Sigma-Aldrich, St. Louis, MO, USA), followed by […] gradient ultracentrifugation and dialysis. The phages were pooled at equimolar representation (Table 1 for details) and injected iv at 1 × 10^10 pfu (in 200 µl PBS) in tumor-bearing mice, circulated for 2 h, followed by anesthesia and intracardial perfusion with DMEM. The tumors and organs were collected in lysogeny broth (LB) medium containing 1% NP40, and the tissues were homogenized using a hand-held homogenizer. Phages in the tissue lysate were amplified in E.coli, purified by precipitation with PEG-8000, and DNA was extracted using a DNA extraction kit (High Pure PCR Template Preparation Kit; Roche, Basel, Switzerland). Next-generation sequencing of phage genomic DNA with Ion Torrent system (Thermo Fisher Scientific, Waltham, MA, USA) was used to evaluate the representation of each peptide-phage in the input mixture, in tumors and control organs. The FASTQ data from Ion Torrent were processed using a custom python script that identified the barcodes, constant flanking residues, and extracted the reads of the correct length.

P3 SCL = assay: In vivo play-off phage auditioning, P3 SCL tumor; set-up: species or system P3 stem cell-like glioblastoma in athymic nude mice; conditions: phage-displayed peptide; equimolar mix, i.v. 1 × 10^10 pfu/mouse, 2 h circulation, perfusion; Ion-Torrent sequencing; mean, N = 3 mice
Procedure: as §1, §2

P13 = assay: In vivo play-off phage auditioning, P13 tumor; set-up: species or system P13 glioblastoma in athymic nude mice; conditions: phage-displayed peptide; equimolar mix, i.v. 1 × 10^10 pfu/mouse, 2 h circulation, perfusion; Ion-Torrent sequencing; mean, N = 3 mice
Procedure: as §1, §2

U87-MG = assay: In vivo play-off phage auditioning, U87-MG tumor; set-up: species or system human glioblastoma in athymic nude mice; conditions: phage-displayed peptide; equimolar mix, i.v. 1 × 10^10 pfu/mouse, 2 h circulation, perfusion; Ion-Torrent sequencing; mean, N = 3 mice
Procedure: as §1, §2

PC3 = assay: In vivo play-off phage auditioning, PC3 tumor; set-up: species or system prostate carcinoma in athymic nude mice; conditions: phage-displayed peptide; equimolar mix, i.v. 1 × 10^10 pfu/mouse, 2 h circulation, perfusion; Ion-Torrent sequencing; mean, N = 3 mice
Procedure: as §1, §2

Norm. brain = assay: In vivo play-off phage auditioning, normal brain; set-up: species or system athymic nude mice; conditions: phage-displayed peptide; equimolar mix, i.v. 1 × 10^10 pfu/mouse, 2 h circulation, perfusion; Ion-Torrent sequencing; mean, N = 3 mice
Procedure: as §2

recombinant TNC-C = assay: Cell-free phage binding to TNC-C; set-up: species or system human
Procedure: For biopanning on recombinant human TNC-C, we used NNK-encoded CX7C and X7 peptide T7 phage libraries with diversity ~5 × 10^8. Throughout our screens, the selected phages were amplified following plate amplification protocol. The 1st and 4th rounds of biopanning were performed on TNC-C immobilized on Costar 96-Well ELISA plate (#3590, Corning Life Sciences, Tewksbury, MA, USA). Briefly, the multiwell plates were coated with 20 µg/ml recombinant TNC-C in 100 µl of PBS overnight at 4 °C, followed by blocking with 1% bovine serum albumin (BSA) in PBS overnight at 4 °C. The phage library (5 × 10^8 pfu in 100 µl of PBS-BSA) was incubated overnight at 4 °C, followed by 6 washes with PBS containing 1% BSA and 0.1% Tween-20 (washing buffer) to remove background phages, and by phage rescue and amplification in E. coli strain BLT5403 (Novagen, EMD Biosciences, MA, USA)[8]. The subsequent rounds of selection were performed on Ni-NTA Magnetic Agarose Beads (QIAGEN, Hilden, Germany) coated with His-6X tagged TNC-C (30 µg/10 µl beads) at room temperature for 1 h in 400 µl of PBS. The TNC-C beads were washed 3 times with washing buffer, followed by incubation with phages in (5 × 10^8 pfu in 100 µl in washing buffer) at room temperature for 1 h. The background phages were removed by rinsing 6 times with washing buffer, and the bound phages were eluted with 1 ml of PBS containing 500 mM Imidazole and 0.1% NP40.
(§3) The eluted phages were titered and amplified for a next round of selection. After 5 rounds of selection, peptide-encoding DNA from a set of 48 phage clones was subjected to Sanger sequencing of peptide-encoding phage DNA[18],[22]. For cell-free binding studies with individual phage clones were incubated with Ni-NTA magnetic beads coated with hexahistidine-tagged TNC-C as above. RPARPAR phage binding to NRP-1-coated beads was used as a positive control. Phage clones displaying heptaglycine peptide (GGGGGGG, G7), or insertless phage clones were used as negative controls. […]
Fig. S13. NRP -1-dependent internalization of PL3 -functionalized AgNPs […]
Supplementary Materials and Methods
Cloning, expression , and purification of TNC-C
Vector Construction. A pF1K (Promega, # FXC00319) derivative plasmid containing full -length cDNA of TNC was used for PCR amplification of cDNA region of TNC-C with Phusion Hot Start II High -Fidelity DNA Polymerase (Thermo Fisher Scientific Inc # F -537L; primer pairs:
5′- CTCCTCT […] -3′ and 5′ -
CAGACA CTCGAG TTATCA TGTAACAATCTC -3′ for domain TNC -C. NdeI and XhoI restriction sites underlined ). The fragments were cloned in the pET28a+ plasmid for TNC -C expression as a n N-terminally His -tagged protein .
Expression and purification of TNC-C. The pET28a+ TNC-C plasmid was used for transformation of E. coli BL21 Rosetta 2 (DE3) pLysS cells (Novagen, #70956). The protein expression was induced by addition of isopropyl β-D-1-thiogalactopyranoside (IPTG) (Sigma, # I6758) to 0.5 mM final concentration and the bacteria were culture d at 18 °C for 16h . Cells were […]
collected by centrifugation, resuspended in ice-cold IMAC buffer (25mM Tris-HCl, 400mM NaCl, 25mM imidazole pH 8, containing EDTA-free protease inhibitor cocktail and DNase I) and lysed by sonification (Bandelin Sonopuls HD 2070, Germany). The cleared bacterial lysate was purified using HiTrap IMAC HP column s (GE Healthcare # 17 -0920-05) on ÄKTA purification system (GE Healthcare ), and the eluate was dialyzed against PBS using 3.5 kDa cut - off 3mL Slide-A-Lyzer Dialysis Cassettes (Thermo Scientific #66330). TNC-C concentration was determined by bicinchoninic acid assay (Thermo Scientific #23227) , and the purity of the proteins was assessed by SDS -PAGE. Mass spectrometry and de novo peptide sequencing were used to confirm the size and sequence of the purified proteins . His-tagged NRP-1 b1b2 domain was expressed and purified as described (Teesalu et al., 2009) .
Single-chain antibodies: The cDNA sequences encoding TNC-C-G11-scFV were retrieved from […]

[1] = system: recombinant b1b2 domain of NRP-1; assay: Cell-free phage binding to NRP-1; conditions: T7 phage-displayed peptide
Procedure: as §3
collected by centrifugation, resuspended in ice-cold IMAC buffer (25mM Tris-HCl, 400mM NaCl, 25mM imidazole pH 8, containing EDTA-free protease inhibitor cocktail and DNase I) and lysed by sonification (Bandelin Sonopuls HD 2070, Germany). […] TNC-C concentration was determined by bicinchoninic acid assay (Thermo Scientific #23227) , and the purity of the proteins was assessed by SDS -PAGE. […]
Single-chain antibodies: The cDNA sequences encoding TNC-C-G11-scFV were retrieved from US patent application EP2157102 A1, and synthetic DNA fragments were cloned in the pET28a+ expression plasmid. […] The purified antibodies were analyzed by SDS-PAGE. […]

fibronectin EDB-domain = assay: Cell-free phage binding to fibronectin EDB; conditions: T7 phage-displayed PL3; in words
[2] = system: tumor tissue across models (4 glioma models and 1 prostate cancer model); assay: In vivo play-off phage auditioning, across tumor models; set-up: species or system nude mice; conditions: T7 phage play-off, i.v., 2 h
Procedure: as §2

[3] = target: recombinant b1b2 domain of neuropilin-1 (NRP-1); assay: phage binding to immobilized recombinant protein (cell-free); conditions: read off a plot
[4] = target: recombinant human Tenascin-C FnIII C domain (TNC-C), hexahistidine-tagged; assay: as above; conditions: read off a plot
[5] = target: recombinant b1b2 domain of neuropilin-1 (NRP-1); assay: phage binding assay; individual T7 phage clones incubated with Ni-NTA magnetic beads coated with hexahistidine-tagged TNC-C (30 ug/10 ul beads) or NRP-1-coated beads, room temperature 1 h, washing buffer PBS with 1% BSA and 0.1% Tween-20, elution with 500 mM imidazole and 0.1% NP40, phage titered; binding as fold heptaglycine (G7) control phage or percent of parental PL3 phage
[6] = target: recombinant b1b2 domain of neuropilin-1 (NRP-1); assay: fluorescence polarisation; fluorescence anisotropy saturation binding; 0.66 uM FAM-Cys-PL3 with 0-112 uM NRP1 or 0-275 uM TNC-C; DPBS with 0.1% Pluronic F-127; 24 h at 25 C; non-specific binding with 500 uM Biotin-Ahx-PL3; global fit, single binding site with ligand depletion
[7] = target: recombinant human Tenascin-C FnIII C domain (TNC-C), hexahistidine-tagged (human); assay: as above

AGRGRLVR (left off: T7 phage particle (peptide displayed on it), end not stated, kept) [PL3]
Representation of phage in tumors, WT-GBM (WT-GBM): 24.1 fold G7 control phage
Representation of phage in tumors, P3 SCL (P3 SCL): 2.1 fold G7 control phage
Representation of phage in tumors, P13 (P13): 4.7 fold G7 control phage
Representation of phage in tumors, U87-MG (U87-MG): 2.1 fold G7 control phage
Representation of phage in tumors, PC3 (PC3): 3.9 fold G7 control phage
Representation of phage in control brain tissue (Norm. brain) (Norm. brain): 0.4 fold G7 control phage
phage binding to recombinant TNC-C (in words) (recombinant TNC-C; T7 phage-displayed peptide, alanine scan expressed as percent binding of parental PL3 phage, 3 independent experiments): binds; also recorded: robust interaction with TNC-C
phage binding to NRP-1 (in words) ([1]; NRP-1 b1b2-coated beads): binds
PL3 phage binding to b1b2 domain of NRP-1 vs heptaglycine control phage ([1]; fold over G7 control phage): ~ 200 fold
phage binding to fibronectin EDB-domain (fibronectin EDB-domain): did not bind; also recorded: no binding
representation in tumor tissue across models [2]: overrepresented in tumor tissue across models tested

T7 phage displaying PL3 peptide (AGRGRLVR) G2A
percent of parent [3]: 92%
percent of parent [4]: 100%

T7 phage displaying PL3 peptide (AGRGRLVR) G4A
percent of parent [3]: 96%
percent of parent [4]: 90%

T7 phage displaying PL3 peptide (AGRGRLVR) L6A
percent of parent [3]: 140%
percent of parent [4]: 34%

T7 phage displaying PL3 peptide (AGRGRLVR) R3A
percent of parent [4]: 10%

T7 phage displaying PL3 peptide (AGRGRLVR) R5A
percent of parent [3]: 190%
percent of parent [4]: 49%

T7 phage displaying PL3 peptide (AGRGRLVR) R8A
percent of parent [3]: 19%
percent of parent [4]: 26%

T7 phage displaying PL3 peptide (AGRGRLVR) V7A
percent of parent [3]: 180%
percent of parent [4]: 76%

VGRVRFSRKLAAALE [Clone-30]
Representation of phage in tumors, WT-GBM (WT-GBM): 2.5 fold G7 control phage
Representation of phage in tumors, P3 SCL (P3 SCL): 0.4 fold G7 control phage
Representation of phage in tumors, P13 (P13): 0.5 fold G7 control phage
Representation of phage in tumors, U87-MG (U87-MG): 0.7 fold G7 control phage
Representation of phage in tumors, PC3 (PC3): 1.2 fold G7 control phage
Representation of phage in control brain tissue (Norm. brain) (Norm. brain): 0.1 fold G7 control phage
TNC-C binding (fold G7 control phage) (recombinant TNC-C; individual T7 phage clones, Ni-NTA magnetic beads coated with hexahistidine-tagged TNC-C): 3702 fold G7 control phage

B1: T7 phage displaying PL3 peptide (AGRGRLVR) (peptide)
peptide: AGRGRLVR
fold binding over heptaglycine control phage [5]: 200 fold

B2: FAM-Cys-PL3 fluorescent peptide (peptide)
peptide: CAGRGRLVR
modifications: not fully specified (N-terminus); also: 6-aminohexanoic acid spacer, position not given here
Kd [6]: 1.1 µM
Kd [7]: 51 µM

Source: publication PMC7118115, “Tumor-penetrating peptide for systemic targeting of Tenascin-C” (Scientific Reports, 2020)
